This is an account of results in patent US6548449B1, “Substituted phenyluracils with herbicidal effect” (Bayer Aktiengesellschaft, priority 1998, dated 2003).

Series [1] deals with weeds. The series is described as follows: Post-emergence test, activity against weeds. Type of series: in vivo. Particulars: test plants of a height of 5-15 cm sprayed, rated after three weeks vs untreated control. Here is the method: (§1) Solvent: 5 parts by weight of acetone
(§2) Emulsifier: 1 part by weight of alkylaryl polyglycol ether
To produce a suitable preparation of active compound, 1 part by weight of active compound is mixed with the stated amount of solvent, the stated amount of emulsifiers is added and the concentrate is diluted with water to the desired concentration.
Test plants of a height of 5-15 cm are sprayed with the preparation of active compound such that the particular amounts of active compound are employed per unit area. The concentration of the spray liquor is chosen so that the particular amounts of active compound desired are applied in 1000 l of water/ha.
(§3) After three weeks, the degree of damage to the plants is rated in % damage in comparison to the development of the untreated control.
(§4) 0%=no effect (like untreated control)

The subject of series [2] is weeds. The series is described as follows: Pre-emergence test, activity against weeds. The settings on record: soil sprayed about 24 hours after sowing, rated after three weeks vs untreated control. Type of series: in vivo. Here is the method: as §1, §2
(§5) To produce a suitable preparation of active compound, 1 part by weight of active compound is mixed with the stated amount of solvent, the stated amount of emulsifier is added and the concentrate is diluted with water to the desired concentration.
(§6) Seeds of the test plants are sown in normal soil. After about 24 hours, the soil is sprayed with the preparation of active compounds such that the particular amounts of active compound desired are applied per unit area. The concentration of the spray liquor is chosen so that the particular amounts of active compound desired are applied in 1000 l of water/ha.
as §3, §4

In series [3] the test system is crop plants, such as, for example, barley and cotton. The series is described as follows: Pre-emergence test, tolerance by crop plants. Type of series: in vivo. Particulars: rated after three weeks. The protocol:
as §1, §2, §5, §6, §3, §4

In general, melting point refers to the temperature, or range, at which the solid turns liquid.

`O=c1cc(C(F)(F)F)[nH]c(=O)n1-c1ccc(OCc2ccc(Cl)c([N+](=O)[O-])c2)cc1F` [Example 1, 1-[2-fluoro-4-(4-chloro-3-nitro-benzyloxy)-phenyl]-4-trifluoromethyl-3,6-dihydro-2,6-dioxo-1(2H)-pyrimidine]: the melting point is 165 °C.
`Cn1c(C(F)(F)F)cc(=O)n(-c2ccc(OCc3ccc(Cl)c(N)c3)cc2F)c1=O` [Example 4, 1-[2-fluoro-4-(3-amino-4-chloro-benzyloxy)-phenyl]-3-methyl-4-trifluoromethyl-3,6-dihydro-2,6-dioxo-1 (2H)-pyrimidine] displayed a melting point of 148 °C. Also, the “activity against weeds (degree of damage to the plants)” value (from here on “activity against weeds”) in the series on weeds [1] is “very strong activity”.
`Cn1c(C(F)(F)F)cc(=O)n(-c2ccc(OCc3ccc(Cl)c([N+](=O)[O-])c3)cc2F)c1=O` [Example 2, 1-[2-fluoro-4-(4-chloro-3-nitro-benzyloxy)-phenyl]-3-methyl-4-trifluoromethyl-3,6-dihydro-2,6-dioxo-1 (2H)-pyrimidine] yielded a melting point of 133 °C. Also, the “activity against weeds” value in the series on weeds [1] is on record as “very strong activity”.
`Nn1c(C(F)(F)F)cc(=O)n(-c2ccc(OCc3ccc(Cl)c([N+](=O)[O-])c3)cc2F)c1=O` [Example 3, 3-amino-1-[2-fluoro-4-(4-chloro-3-nitro-benzyl-oxy)-phenyl]-4-trifluoromethyl-3,6-dihydro-2,6-dioxo-1(2H)-pyrimidine] yielded a melting point of 185 °C. In the series on weeds [1], the “activity against weeds” value was “very strong activity”.
`CCS(=O)(=O)Nc1cc(COc2ccc(-n3c(=O)cc(C(F)(F)F)n(C)c3=O)c(F)c2)ccc1Cl` [Example 5, 1-[2-fluoro-4-(4-chloro-3-ethylsulphonylamino-benzyloxy)-phenyl]-3-methyl-4-trifluoromethyl-3,6-dihydro-2,6-dioxo-1(2H)-pyrimidine]: the melting point amounted to 151 °C. In addition, the “activity against weeds” value in the series on weeds [2] was “very strong activity”. For the same compound, the “tolerance by crop plants” value in series [3] is on record as “tolerated well”. Also, the “activity against weeds” value with weeds [1] is reported as “very strong activity”.
